Test results from paper PMC6377692 (EJNMMI Research, 2019).
Bridge positions count the residues as written; N and C are the ends. Square brackets hold non-standard residues; d marks the D form. Peptide text beside a SMILES is read from it. * marks the point of attachment. DO3A(CH2CH2SO2CH2CH2) = O=C(O)CN1CCN(CCS(=O)(=O)CC*)CCN(CC(=O)O)CCN(CC(=O)O)CC1; Ala(4-thiazolyl) = N[C@@H](Cc1cscn1)C(=O)O

Experiments:
[1] = biological target: T1, HEK293 cells transfected with human GCGR (Homo sapiens, UniProt P47871); assay: cellular internalization assay; assay type: cell-based
T1 construct: expressed in transfected cells; host or cells: HEK293
Procedure: The assay was also performed at 4 °C (5% CO2) for 60 and 120 min to suppress internalization. The exact number of cells in each well was assessed by cell counter. After incubation, the hot media containing the radioligand was removed and the cells washed with serum-free media two to three times while cells were put on ice.
To measure membrane bound and internalized radioligand, cells were treated first with 0.2 M glycine buffer containing 4 M urea (pH 2.5) (acid wash buffer) and secondly 1 M NaOH (basic wash buffer).
Briefly, first 0.5 mL of acid wash buffer was added to the cells and allowed to incubate for 5 min on ice. The supernatant was then removed and measured in a well counter (membrane bound fraction) (Uppsala Imanet AB, Uppsala, Sweden). The cells were washed one time, before 0.5 mL of basic wash buffer was added and allowed to incubate for 30 min at 37 °C. Then, the detached cells were collected and measured by well counter (internalized fraction). All samples were repeated in triplicates.
The well counter data for each dish and condition was decay corrected to the time at the start of each experiment and expressed as Bq. The internalized and the total cell-associated (internalized + cell membrane bound) fractions were expressed as percentage of the total added radioligand per million of cells (%ID/M cells). […]

[2] = rat in vivo distribution (ex vivo organ counting); parameters: species or system Sprague Dawley rats; settings: male, Sprague Dawley, iv, total radioactivity, i.v.
Procedure: The in vivo distribution over time was performed to identify the optimal time point for an in vivo blocking study and to calculate the residence time for dosimetry (see detail below). Thus, measurement at more time points was prioritized over repetitions at individual time points.
The animals were kept at a constant temperature (25 °C) and humidity (50%) in a 12-h light-dark cycle. Food and water were provided ad libitum.
Each radiotracer was administered into the tail vein of conscious animals as a bolus in 0.5–0.6 mL of PBS (pH 7.4) as vehicle. […] Given the constraints of the specific radioactivity for each radioligand, the dosing was designed to minimize the given peptide mass (in order to stay below mass effect levels) while still yielding enough radioactive signal for well counter measurements.
At pre-determined post injection time points (5, 10, 20, 40, 60, 90, 120, and 180 min), two animals per each point were euthanized by CO2. Tissues were immediately extracted and weighed, and the radioactive content was measured in the well counter. […] The well counter readings were decay corrected to the time of injection and the mass of the extracted tissues and expressed as Bq/cc. […]

T1 sequence (P47871 26-477): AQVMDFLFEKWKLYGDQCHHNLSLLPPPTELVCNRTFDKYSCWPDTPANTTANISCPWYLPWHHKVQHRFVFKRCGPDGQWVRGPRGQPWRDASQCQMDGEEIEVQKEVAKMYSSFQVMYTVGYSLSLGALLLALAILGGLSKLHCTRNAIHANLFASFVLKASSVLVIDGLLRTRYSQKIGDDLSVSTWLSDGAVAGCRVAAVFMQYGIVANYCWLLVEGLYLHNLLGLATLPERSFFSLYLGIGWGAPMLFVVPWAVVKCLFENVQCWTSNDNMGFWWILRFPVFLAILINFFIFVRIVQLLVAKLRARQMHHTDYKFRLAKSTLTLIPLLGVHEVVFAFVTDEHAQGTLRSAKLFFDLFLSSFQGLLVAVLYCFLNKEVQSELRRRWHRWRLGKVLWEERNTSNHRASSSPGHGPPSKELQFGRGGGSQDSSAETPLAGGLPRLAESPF

Question: Which results are given for CC[C@H](C)[C@H](NC(=O)[C@H](Cc1ccccc1)NC(=O)[C@H](CCC(=O)O)NC(=O)[C@@H]1CCCCNC(=O)CC[C@H](NC(=O)[C@H](CC(=O)O)NC(=O)[C@H](CC(C)C)NC(=O)[C@H](CCC(N)=O)NC(=O)[C@H](CCCCN)NC(=O)[C@H](CO)NC(=O)[C@H](Cc2ccc(O)cc2)NC(=O)[C@H](CC(=O)O)NC(=O)[C@H](CO)NC(=O)[C@@H](NC(=O)[C@H](Cc2ccccc2)NC(=O)[C@@H](NC(=O)CNC(=O)[C@H](CCC(N)=O)NC(=O)[C@@H](CO)NC(=O)[C@@H](N)Cc2cscn2)[C@@H](C)O)[C@@H](C)O)C(=O)N[C@@H](CCC(N)=O)C(=O)N[C@@H](CCCNC(=N)N)C(=O)N[C@@H](C)C(=O)N1)C(=O)N[C@@H](CCC(=O)O)C(=O)N[C@@H](Cc1c[nH]c2ccccc12)C(=O)N[C@@H](CC(C)C)C(=O)N[C@@H](CC(C)C)C(=O)N[C@@H](C)C(=O)N[C@H](C(=O)NCC(=O)N1CCC[C@H]1C(=O)N[C@@H](CCC(=O)O)C(=O)N[C@@H](CO)C(=O)NCC(=O)N[C@@H](C)C(=O)N1CCC[C@H]1C(=O)N1CCC[C@H]1C(=O)N1CCC[C@H]1C(=O)N[C@@H](CO)C(=O)N[C@@H](CSCCS(=O)(=O)CCN1CCN(CC(=O)O)CCN(CC(=O)O)CCN(CC(=O)O)CC1)C(N)=O)[C@@H](C)O [[^68Ga]Ga-DO3A-S01-GCG, metal not drawn] (H-[Ala(4-thiazolyl)][dS]QGTFTSDYSKQLDEQRAKEFIEWLLATGPESGAPPPSC(DO3A(CH2CH2SO2CH2CH2))-NH2; lactam 16-20)?
Answer: binding to GCGR-transfected cells at steady state / plateau (total cell-associated) ([1]; 3–7 nM tracer, RT, after 60–120 min (S01) or 60 min (S02), triplicates, 3 batches): approximately 65 % ID/million cells; effect of cooling on internalization ([1]; 4 °C, 60 and 120 min): suppressed almost completely; SUV ([2]; liver, 3.6 ug/kg, after 20 min, read-out: uptake in the liver, plateau): 3 SUV; tissue to tissue ratio ([2]; liver/blood, after 90 min): > 30
